Legend:
[1] = tested on: 786-O humanized renal clear cell xenograft; test: Tumor-inhibiting effect on 786-O xenograft tumor-bearing mice (Experimental Example 4); assay type: in vivo, SCID-Beige nude mice; settings: QD × 14 days, free form; for TGI: from tumor weight
Description: (§1) 786-O cells were cultured in RPMI-1640 culture medium containing inactivated 10% fetal bovine serum, 100 Um′ penicillin and 100 μg/ml streptomycin as well as 2 mM glutamine in an incubator at 37° C., 5% CO2. During cell culture, the initial concentration was 5×10^5 cells/ml, and the cells were separated into other bottles every 3 to 4 days when the cells reached a cell density of 100%. The tumor cells in logarithmic growth phase were used in tumor inoculation in vivo.
Female SCID-Beige nude mice (SPF grade) was inoculated subcutaneously at right lateral thorax with 786-O tumor cells re-suspended in PBS at 8×10^6 cells/0.1 ml. When the tumor grew into a volume of 800 mm^3, under aseptic conditions, tumor was peeled off. The well grown tumor tissues were cut into tumor mass with a size of 2×2×2 mm^3, and then were used to inoculate animal subcutaneously. When the tumor grew to a volume of about 100 mm^3, the mice were grouped and administered, 5 groups in total, 8 mice per group.
The volume of tumor was measure by using Vernier caliper twice a week. The long diameter and short diameter of tumor were measured. The volume was calculated by the formula: volume=0.5×long diameter×short diameter^2. After the final measurement, the animal was sacrificed and the tumor was peeled off and weighed. Based on the tumor weight of each group, tumor growth-inhibiting rate (TGI) was calculated. […] The data was effectiveness when TGI≧60% and p<0.05 by statistical analysis.

HCT116 xenograft = test: Tumor-inhibiting effect on HCT116 xenograft tumor-bearing mice (Experimental Example 5); assay type: in vivo, Balb/c nude mice; settings: QD × 14 day, free form; for TGI: from tumor weight
Description: as §1, with “HCT116” for “786-O”, “McCoy's 5a” for “RPMI-1640”
Balb/c nude mice was inoculated subcutaneously at right lateral thorax with HCT116 tumor cells re-suspended in PBS at 1.0×10^7 cells/0.1 ml. When the tumor grew into a volume of 800 mm^3, the animal was sacrificed and under aseptic conditions, tumor was peeled off. The well grown tumor tissues were cut into tumor mass with a size of 2×2×2 mm^3, and then were used to inoculate animal at right lateral thorax subcutaneously. 60 animals were inoculated. When the tumor grew into a volume of about 110 mm^3, the mice were grouped and administered, 5 groups in total, 8 mice per group.
The volume of tumor was measured by using Vernier caliper twice a week. The long diameter and short diameter of tumor were measured. The volume was calculated by the formula: volume=0.5× long diameter×short diameter^2. After the final measurement, the animal was sacrificed and the tumor was peeled off and weighed. Based on the tumor weight, tumor growth-inhibiting rate (TGI) was calculated. […] When the assay was finished, the experimental animal was subjected to euthanasia.

[2] = tested on: human renal cancer 786-O transplantation; test: Effect on tumor weight of human renal cancer 786-O transplantation nude mice (Comparative Experimental Example 1); assay type: in vivo; settings: QD × 14 days, sorafenib as p-toluenesulfonate, FD-1210005 free form
Description: Comparative Experimental Example 1
The well grown 786-O solid tumor was cut into a mass of an average volume of about 1 mm^3 under aseptic conditions, and was used to inoculate nude mouse at axillary cavity of right forelimb subcutaneously via a trocar. The tumor growth state was observed regularly until the tumor grew into a volume of 250˜550 mm^3.
(§2) Animals with tumors of a too large or too small volume and an irregular shape were discarded. Tumor-bearing mice with a tumor volume of 250˜550 mm^3 in a good state were selected, 48 mice in total, and were divided into 6 groups, which were 1 solvent control group, 3 positive control groups, and 2 test sample groups. Both the positive control group and the test sample group were administered intragastrically once a day; the solvent control group was administered with 12.5% ethanol & 12.5% water solution of polyoxyethylene castor oil once a day; intragastrical volume was 10 mL/kg.
(§3) In the period of administration, tumor diameter was measured twice every week, tumor volume was calculated, and animal body weight was recorded. Animal state was observed when administered, and abnormal state was recorded.
Animal was sacrificed with CO2, and tumor was peeled off, weighed, and photographed. Animal was subjected to gross anatomy, and organs were observed by eyes to find if they were normal or not.
(§4) Observation Indexes: Tumor weight inhibiting rate (IR)=(WC−WT)/WC
Wherein WC and WT represented the average tumor weight of solvent control group and the average tumor weight of drug administration group, respectively.
Experimental data was subjected to calculation and relevant statistic processing by Microsoft Office Excel 2003 software. Unless otherwise specified, data was represented as Mean±Standard Error (Mean±S.E), and t-test is used in the comparison between two groups.

[3] = tested on: human colon cancer HCT-116 transplantation; test: Effect on tumor weight of human colon cancer HCT-116 transplantation nude mice (Comparative Experiment Example 2); assay type: in vivo; settings: QD × 17 day, sorafenib as p-toluenesulfonate, FD-1210005 free form
Description: Comparative Experiment Example 2
Under aseptic conditions, the well grown human HCT-116 cell suspension in logarithmic growth phase was used to inoculate nude mouse at axillary cavity of right forelimb subcutaneously via an injector. The tumor growth state was observed regularly until the tumor grew to a volume of 100˜300 mm^3.
as §2, with “48” for “Animals with tumors of a too large or too small volume and an irregular shape were discarded.”, “100˜300” for “250˜550”, “mm^3” for “mm^3 in a good state”, “selected” for “selected, 48 mice in total,”, “and” for “and were”
as §3
Animal was sacrificed with CO2, and tumor mass was peeled off, weighed, and photographed. After photographed, each tumor mass was cut into two parts, wherein one was stored in 4% paraformaldehyde, and the other was packaged into a freezing tube, and frozen in liquid nitrogen. Animal was subjected to gross anatomy, and organs were observed by eyes to find if they were normal or not.
as §4
wherein WC and WT represented the average tumor weight of solvent control group and the average tumor weight of drug administration group, respectively.
Experimental data was subjected to calculation and relevant statistic processing by Microsoft Office Excel 2003 software. Unless otherwise specified, data was represented as Mean±Standard Error (Mean±S.E.), and t-test is used in the comparison between two groups.

Cn1cc(-c2nccc(Oc3ccc(NC(=O)Nc4ccc(Cl)c(C(F)(F)F)c4)cc3)c2Cl)cn1 [Example 2, 1-(4-chloro-3-(trifluoromethyl)phenyl)-3-(4-(3-chloro-2-(1-methyl-pyrazol-4-yl)-pyridin-4-yl-oxy)phenyl)urea]
Tumor weight Mean ± S.E ([1]; 10 mg/kg po): 37 ± 20 mg | TGI ([1]; 10 mg/kg po): 82% | Tumor weight Mean ± S.E ([1]; 20 mg/kg po): 32 ± 15 mg | TGI ([1]; 20 mg/kg po): 85% | Tumor weight Mean ± S.E ([1]; 40 mg/kg po): 16 ± 12 mg | TGI ([1]; 40 mg/kg po): 92% | Tumor weight (D27) Mean ± S.E (HCT116 xenograft; 10 mg/kg po): 0.153 ± 0.078 g | TGI (HCT116 xenograft; 10 mg/kg po): 84.1% | Tumor weight (D27) Mean ± S.E (HCT116 xenograft; 20 mg/kg po): 0.104 ± 0.035 g | TGI (HCT116 xenograft; 20 mg/kg po): 89.1% | Tumor weight (D27) Mean ± S.E (HCT116 xenograft; 40 mg/kg po): 0.077 ± 0.043 g | TGI (HCT116 xenograft; 40 mg/kg po): 92% | TGI (HCT116 xenograft; 40 mg/kg po, listed as FD-2013018): 92.0%

CNC(=O)c1cc(Oc2ccc(NC(=O)Nc3ccc(Cl)c(C(F)(F)F)c3)cc2)ccn1 [Comparative example 1, Sorafenib, reference compound]
Tumor weight Mean ± S.E ([2]; 20 mg/kg po): 0.5239 ± 0.1038 g | Tumor-inhibiting rate ([2]; 20 mg/kg po): 44.01% | Tumor weight Mean ± S.E ([2]; 60 mg/kg po): 0.4407 ± 0.0581 g | Tumor-inhibiting rate ([2]; 60 mg/kg po): 52.89% | Tumor weight Mean ± S.E ([3]; 20 mg/kg Ig): 0.5628 ± 0.0617 g | Tumor-inhibiting rate ([3]; 20 mg/kg Ig): 43.28% | Tumor weight Mean ± S.E ([3]; 60 mg/kg Ig): 0.4409 ± 0.0857 g | Tumor-inhibiting rate ([3]; 60 mg/kg Ig): 55.57%

Source: US9902709B2, “Polysubstituted pyridine compound, preparation method, use and pharmaceutical composition” (PEKING UNIVERSITY FOUNDER GROUP CO., LTD., priority 2014, dated 2018)
